Test results: patent US20070243548A1, “Calumenin-directed diagnostics and therapeutics for cancer and chemotherapeutic drug resistance” (priority 2006, published 2007)
Where two headings read alike, the source gives them in different places.

Assays:
Format in all cases: cell-based, human
MCF-7 cells [1] = assay: cells; conditions: for fold lower viability to drug treatment as compared to control cells / fold more sensitive to drug: calumenin-depleted MCF-7 cells; for fold lower viability to drug treatment as compared to control cells: FIGS. 6C and 6D; for IC50: Homo sapiens, MCF7; for IC50 / IC10: MCF-7 cells, determined from MTT experiments; for fold more sensitive to drug: FIGS. 6A and 6B
Protocol: (§1) For a typical siRNA transfection, […] of the annealed siRNA duplex was mixed with 1.4 ml of Opti-MEM reagent (Invitrogen). In another tube, […] of Oligofectamine reagent (Invitrogen, Carlsbad, Calif.) was mixed with […] of Opti-MEM. The two solutions were combined and mixed gently by inversion and incubated for 20 min. at RT. The resulting solution was added to the cultured cells drop by drop in a 10 cm dish (cells are approximately 40-50% confluent). The next day the transfected cells were trypsinized and seeded in 6 or 96-well plates and further incubated for the indicated amount of time (assay dependent) before further analysis.
(§2) Cell survival was determined using the MTT cytotoxicity assay (see, e.g., Tokuyama et al. (2005) Anticancer Res. 25(1A): 17-22). Small interfering RNA transfected cells were seeded in triplicate into 96-well plates at 5×10^3 cells/well 48 hrs post-transfection. The cells were incubated for an additional 16 to 24 hrs before they were exposed to increasing concentrations of cytotoxic drugs. Doxorubicin (adriamycin), cisplatin, taxol, vinblastine, vincristine, and mitoxantrone were all purchased from Sigma Corp. (St. Louis, Mo.). Stocks were made as follows: 6 mM for doxorubicin, 1.1 mM for vincristine and vinblastine; 1.1 mM for taxol, 50 mM for cisplatin both in DMSO; and 0.97 mM mitoxantrone in ethanol. Appropriate dilutions were made in the respective media for each cell line. Following addition of drugs, incubation was continued for an additional 72 hrs. […] of MTT dye (5 mg/ml) were added into each well and the plate was further incubated at 37° C. for 4 hrs. The dye was solubilized with 10% Triton X-100, 0.01 N HCl and further incubated at 37° C. in the dark for 30 min. Cell viability was determined by measure of absorption at 570 nm in a Wallac multiwell plate reader (PerkinElmer, Inc., Boston, Mass.). The averages of triplicate wells were plotted using the Prism software (GraphPad Software, Inc., San Diego, Calif.).

[2] = system: SKOV3 ovarian adenocarcinoma cell lines; assay: MTT cytotoxicity assay, calumenin-depleted SKOV3 cells; conditions: Table 3; calumenin-depleted SKOV3 vs mock siRNA-transfected cells
Protocol: as §1, §2

MCF-7 cells [3] = assay: cells; conditions: 72 hours post transfection
[4] = system: MDA breast adenocarcinoma cell line; assay: MTT cytotoxicity assay, calumenin-depleted MDA cells; conditions: Table 3; calumenin-depleted MDA vs mock siRNA-transfected cells; NC = no change occurred
Protocol: as §1, §2

MCF-7 cells [5] = assay: Clonogenic assay, siRNA-transfected MCF-7 cells; conditions: FIG. 7; for cell survival, calumenin-directed siRNA and drug treatment as compared to drug treatment alone: MCF-7, IC10 and IC90 drug concentrations
Protocol: A clonogenic assay generated additional information concerning cell viability after drug-resistant cells were exposed to siRNA and chemotherapeutics. Briefly, transfected MCF-7 cells were seeded in triplicate into 24-well plates at 5×10^3 cells/well 48 hrs post-transfection. The cells were incubated for an additional 16-24 hrs before they were exposed to increasing concentrations of cytotoxic drugs. […] The cells were further incubated for an additional 7 days. At the end of the incubation, the cells were stained with addition of a 0.5% Methylene Blue solution in 50% ethanol for 15 min. at RT. The staining solution was then removed and plates were dried overnight. The plates were scanned and the stained colonies were solubilized in 0.1% SDS. The absorbance of the resulting solution was determined by spectrophotometry at 660 nm. […] The same results were found for cells treated with vincristine and calumenin-directed siRNA as compared to vincristine alone (FIG. 7).

[6] = Table 2, calumenin vs control transfected MCF7 cells
[7] = Table 3, calumenin-depleted MCF-7 vs mock siRNA-transfected cells
[8] = calumenin depleted MCF-7, IC50 drug treatment level
[9] = Homo sapiens, MCF7 cells transfected with calumenin-directed siRNA (table: vector expressing calumenin-encoding RNA), read-out: EC50, Calumenin
[10] = Homo sapiens, mock vector transfected MCF7 cells, read-out: EC50, Control

| SMILES | IS: increased sensitivity to the particular drug (MCF-7 cells [1]; [6]) [× IS] | IS: increased sensitivity to the particular drug (MCF-7 cells [1]; [7]) [× IS] | fold lower viability to drug treatment as compared to control cells (MCF-7 cells [1]) [fold] | IS: increased sensitivity to the particular drug [2] [× IS] | EC50 (MCF-7 cells [3]; MCF7 cells transfected with calumenin-directed siRNA (table: vector expressing calumenin-encoding RNA), read-out: EC50, Calumenin) [nM] | EC50 (MCF-7 cells [3]; mock vector transfected MCF7 cells, read-out: EC50, Control) [nM] | IC50 (MCF-7 cells [1]) [nM] | IC10 (MCF-7 cells [1]) [nM] | IS: increased sensitivity to the particular drug [4] [× IS] | sensitivity of calumenin silenced MCF-7 cells to drug (MCF-7 cells [5]) | cell survival, calumenin-directed siRNA and drug treatment as compared to drug treatment alone (MCF-7 cells [5]) | more sensitive to drug than cells transfected with control siRNA (MCF-7 cells [5]; [8]) [%] | more sensitive to drug than cells transfected with control siRNA (MCF-7 cells [5]; calumenin depleted MCF-7, IC90 drug treatment level) [%] | EC50 (MCF-7 cells [3]; [9]) [nM] | EC50 (MCF-7 cells [3]; [10]) [nM] | fold more sensitive to drug (MCF-7 cells [1]) | more sensitive to drug than cells transfected with control siRNA (MCF-7 cells [5]; calumenin-directed siRNA transfected MCF-7, IC10 drug treatment level) [%] |
| --- | --- | --- | --- | --- | --- | --- | --- | --- | --- | --- | --- | --- | --- | --- | --- | --- | --- |
| N.N.[Cl][Pt][Cl] [Cisplatin] | 8.5 | 8.5 | 9 | 3.3 | 2240 | 19100 |  |  |  |  |  |  |  |  |  |  |  |
| CC[C@]1(O)C[C@H]2CN(CCc3c([nH]c4ccccc34)[C@@](C(=O)OC)(c3cc4c(cc3OC)N(C=O)[C@H]3[C@@](O)(C(=O)OC)[C@H](OC(C)=O)[C@]5(CC)C=CCN6CC[C@]43[C@@H]65)C2)C1 [Vincristine] | 17.2 | 17 | 17 | 4 |  |  | 0.25 | 5000 | 3.8 | substantial increase | same results | 20 | 33 | 0.00274 | 0.0471 |  |  |
| CC(=O)O[C@@]12CO[C@@H]1C[C@H](O)[C@@]1(C)C(=O)[C@H](O)C3=C(C)[C@@H](OC(=O)[C@H](O)[C@@H](NC(=O)OC(C)(C)C)c4ccccc4)C[C@@](O)([C@@H](OC(=O)c4ccccc4)[C@H]21)C3(C)C [Docetaxel] | 2.1 |  |  |  |  |  |  |  |  |  |  |  |  | 0.00463 | 0.00976 |  |  |
| COc1cccc2c1C(=O)c1c(O)c3c(c(O)c1C2=O)C[C@@](O)(C(=O)CO)C[C@@H]3O[C@H]1C[C@H](N)[C@H](O)[C@H](C)O1 [Doxorubicin] | 1.8 | 1.8 |  | 1.6 |  |  |  |  | 2.4 |  |  |  |  | 27.4 | 50 | two |  |
| CC[C@]1(O)C[C@@H]2CN(CCc3c([nH]c4ccccc34)[C@@](C(=O)OC)(c3cc4c(cc3OC)N(C)[C@H]3[C@@](O)(C(=O)OC)[C@H](OC(C)=O)[C@]5(CC)C=CCN6CC[C@]43[C@@H]65)C2)C1 [Vinblastine] | 656.9 |  |  |  |  |  |  |  |  |  |  |  |  |  | 0.00149 |  |  |
| COc1cc([C@@H]2c3cc4c(cc3[C@@H](O[C@@H]3O[C@@H]5CO[C@@H](C)O[C@H]5[C@H](O)[C@H]3O)[C@H]3COC(=O)[C@H]23)OCO4)cc(OC)c1O [Etoposide] | 1.3 |  |  |  |  |  |  |  |  |  |  |  |  | 957 | 1200 |  |  |
| CC(=O)O[C@H]1C(=O)[C@@]2(C)[C@H]([C@H](OC(=O)c3ccccc3)[C@]3(O)C[C@H](OC(=O)[C@H](O)[C@@H](NC(=O)c4ccccc4)c4ccccc4)C(C)=C1C3(C)C)[C@]1(OC(C)=O)CO[C@@H]1C[C@@H]2O [Taxol] | 4130.2 | >10 |  | 2.1 |  |  | 100 | 1 | 3.8 | substantial increase | significantly decreased | 50 |  |  |  |  | 30 |
| O=C1c2c(O)ccc(O)c2C(=O)c2c(NCCNCCO)ccc(NCCNCCO)c21 [Mitoxantrone] | 4.4 | 4.4 |  | 1.6 |  |  |  |  | 6 |  |  |  |  | 1.38 | 6.04 | four |  |
